Measured values as given in ChEMBL document CHEMBL1201862, “PubChem BioAssay data set” (2004).
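Following 48 hours of exposure in 96-well plates, responses at five concentrations were used to interpolate endpoints linearly. Here, GI50 denotes the concentration required for 50% inhibition of growth.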 The source made the active and inactive calls. No stated cut-off is given here; in the data, active = GI50 up to about 1.1 µM and inactive = higher.

How the values were obtained:
Test in all cases: NCI tumour cell line growth inhibition, 48 h
[1] = tested on: EKVX
[2] = tested on: HL-60
[3] = tested on: IGROV-1
[4] = tested on: K562
[5] = tested on: MOLT-4
[6] = tested on: NCI-H522
[7] = tested on: OVCAR-5
[8] = tested on: OVCAR-8
[9] = tested on: RXF 393
[10] = tested on: SK-MEL-28
[11] = tested on: SK-MEL-2
[12] = tested on: SK-MEL-5
[13] = tested on: SNB-19
[14] = tested on: SNB-75
[15] = tested on: TK-10
[16] = tested on: U-251
[17] = tested on: UACC-257
[18] = tested on: UO-31
[19] = tested on: MDA-MB-435
[20] = tested on: Hs-578T

## C[C@]12CC=CC(=O)[C@@]1(C)CCC(=O)C2
[1]
  GI50: > 100 µM (inactive)
[2]
  GI50: > 100 µM (inactive)
[3]
  GI50: > 100 µM (inactive)
[4]
  GI50: > 100 µM (inactive)
[5]
  GI50: > 100 µM (inactive)
[6]
  GI50: > 100 µM (inactive)
[7]
  GI50: > 100 µM (inactive)
[8]
  GI50: > 100 µM (inactive)
[9]
  GI50: > 100 µM (inactive)
[10]
  GI50: > 100 µM (inactive)
[11]
  GI50: > 100 µM (inactive)
[12]
  GI50: > 100 µM (inactive)
[13]
  GI50: > 100 µM (inactive)
[14]
  GI50: > 100 µM (inactive)
[15]
  GI50: > 100 µM (inactive)
[16]
  GI50: > 100 µM (inactive)
[17]
  GI50: > 100 µM (inactive)
[18]
  GI50: > 100 µM (inactive)

## CCOC(=O)C1(C)CCC(C(=O)OC)C1=O (stereo unspecified)
[1]
  GI50: > 100 µM (inactive)
[2]
  GI50: 53.1 µM (inactive)
[3]
  GI50: > 100 µM (inactive)
[4]
  GI50: 32.8 µM (inactive)
[5]
  GI50: 87.9 µM (inactive)
[6]
  GI50: 17.1 µM (inactive)
[7]
  GI50: > 100 µM (inactive)
[8]
  GI50: > 100 µM (inactive)
[9]
  GI50: > 100 µM (inactive)
[10]
  GI50: > 100 µM (inactive)
[11]
  GI50: > 100 µM (inactive)
[12]
  GI50: > 100 µM (inactive)
[13]
  GI50: > 100 µM (inactive)
[14]
  GI50: > 100 µM (inactive)
[15]
  GI50: > 100 µM (inactive)
[16]
  GI50: 67.1 µM (inactive)
[17]
  GI50: > 100 µM (inactive)
[18]
  GI50: > 100 µM (inactive)

## NNC(=O)C1(NC(=O)c2ccccc2)C(c2ccccc2)C(c2ccccc2)=NN1c1ccccc1 (stereo unspecified)
[1]
  GI50: 42.3 µM (inactive)
[3]
  GI50: 34.9 µM (inactive)
[4]
  GI50: 27.2 µM (inactive)
[19]
  GI50: 29.2 µM (inactive)
[5]
  GI50: 12.7 µM (inactive)
[6]
  GI50: 55.3 µM (inactive)
[7]
  GI50: 33 µM (inactive)
[8]
  GI50: 55.5 µM (inactive)
[9]
  GI50: 14.5 µM (inactive)
[10]
  GI50: 90.4 µM (inactive)
[11]
  GI50: 41.5 µM (inactive)
[12]
  GI50: 30 µM (inactive)
[13]
  GI50: 66.2 µM (inactive)
[14]
  GI50: 30.2 µM (inactive)
[15]
  GI50: 58.2 µM (inactive)
[16]
  GI50: 62.1 µM (inactive)
[17]
  GI50: 43.3 µM (inactive)
[18]
  GI50: 27.8 µM (inactive)

## O=C(CCCn1ccnc1[N+](=O)[O-])NCCn1ccnc1[N+](=O)[O-]
[1]
  GI50: > 100 µM (inactive)
[2]
  GI50: > 100 µM (inactive)
[20]
  GI50: > 100 µM (inactive)
[3]
  GI50: > 100 µM (inactive)
[4]
  GI50: > 100 µM (inactive)
[19]
  GI50: > 100 µM (inactive)
[5]
  GI50: > 100 µM (inactive)
[6]
  GI50: > 100 µM (inactive)
[7]
  GI50: > 100 µM (inactive)
[8]
  GI50: > 100 µM (inactive)
[10]
  GI50: > 100 µM (inactive)
[11]
  GI50: > 100 µM (inactive)
[12]
  GI50: > 100 µM (inactive)
[13]
  GI50: > 100 µM (inactive)
[14]
  GI50: > 100 µM (inactive)
[15]
  GI50: > 100 µM (inactive)
[16]
  GI50: > 100 µM (inactive)
[17]
  GI50: > 100 µM (inactive)
[18]
  GI50: > 100 µM (inactive)

## COc1ccc(CCn2ccc(=O)c(O)c2C)cc1OC
[1]
  GI50: 24.4 µM (inactive)
[2]
  GI50: 32.2 µM (inactive)
[20]
  GI50: < 0.01 µM (active)
[4]
  GI50: 37.1 µM (inactive)
[19]
  GI50: 41.6 µM (inactive)
[5]
  GI50: 16 µM (inactive)
[7]
  GI50: 26.7 µM (inactive)
[8]
  GI50: 16.9 µM (inactive)
[12]
  GI50: 13.5 µM (inactive)
[13]
  GI50: 16 µM (inactive)
[15]
  GI50: 5.87 µM (inactive)
[16]
  GI50: 9.64 µM (inactive)
[17]
  GI50: 6.18 µM (inactive)

## CCOC(=O)Nn1c(C)nnc1CC#N
[2]
  GI50: > 100 µM (inactive)
[20]
  GI50: > 100 µM (inactive)
[3]
  GI50: > 100 µM (inactive)
[4]
  GI50: > 100 µM (inactive)
[5]
  GI50: > 100 µM (inactive)
[6]
  GI50: > 100 µM (inactive)
[7]
  GI50: > 100 µM (inactive)
[8]
  GI50: > 100 µM (inactive)
[9]
  GI50: > 100 µM (inactive)
[10]
  GI50: > 100 µM (inactive)
[11]
  GI50: > 100 µM (inactive)
[12]
  GI50: > 100 µM (inactive)
[13]
  GI50: > 100 µM (inactive)
[14]
  GI50: > 100 µM (inactive)
[15]
  GI50: > 100 µM (inactive)
[16]
  GI50: > 100 µM (inactive)
[17]
  GI50: > 100 µM (inactive)
[18]
  GI50: > 100 µM (inactive)

## C=CCCC(O)c1cc(C)c(O)c(C)c1 (stereo unspecified)
[1]
  GI50: > 100 µM (inactive)
[2]
  GI50: > 100 µM (inactive)
[3]
  GI50: > 100 µM (inactive)
[4]
  GI50: > 100 µM (inactive)
[5]
  GI50: > 100 µM (inactive)
[6]
  GI50: > 100 µM (inactive)
[7]
  GI50: > 100 µM (inactive)
[8]
  GI50: > 100 µM (inactive)
[9]
  GI50: 53.3 µM (inactive)
[10]
  GI50: > 100 µM (inactive)
[11]
  GI50: > 100 µM (inactive)
[12]
  GI50: > 100 µM (inactive)
[13]
  GI50: > 100 µM (inactive)
[14]
  GI50: 60.1 µM (inactive)
[15]
  GI50: > 100 µM (inactive)
[16]
  GI50: > 100 µM (inactive)
[17]
  GI50: > 100 µM (inactive)
[18]
  GI50: > 100 µM (inactive)

## c1cc(CSP234N5CCN2CCN3CCN4CC5)cc(CSP234N5CCN2CCN3CCN4CC5)c1
[1]
  GI50: 63.2 µM (inactive)
[2]
  GI50: 3.56 µM (inactive)
[20]
  GI50: 21.9 µM (inactive)
[3]
  GI50: 21.5 µM (inactive)
[4]
  GI50: < 0.01 µM (active)
[19]
  GI50: 22.6 µM (inactive)
[5]
  GI50: 15.7 µM (inactive)
[6]
  GI50: 16.9 µM (inactive)
[7]
  GI50: 86.7 µM (inactive)
[8]
  GI50: 18.6 µM (inactive)
[10]
  GI50: 18.8 µM (inactive)
[11]
  GI50: 19.2 µM (inactive)
[12]
  GI50: 16.3 µM (inactive)
[13]
  GI50: 27.9 µM (inactive)
[14]
  GI50: 20.1 µM (inactive)
[15]
  GI50: 26.3 µM (inactive)
[16]
  GI50: 21.9 µM (inactive)
[17]
  GI50: 17 µM (inactive)
[18]
  GI50: 13.9 µM (inactive)
